Experimental data taken from patent US12138256B2, “Treatment of cardiopulmonary disorders” (Bayer Aktiengesellschaft, priority 2021, dated 2024).
Where “and” joins values, the source holds several entries; their conditions need not be identical. Equal entries are not always repeated. Where two headings read alike, the source gives them in different places.

Columns and labels:
[1] = test system: thromboxane analog U46619 induced PAH in minipigs; assay: PAH minipig model: comparison with and on top of standard of care (bosentan, sildenafil, riociguat); type: in vivo, Göttingen minipig; settings: for BP decrease % / PAP decrease %: % change per animal; for effects on PAP and BP: bosentan 1 mg/kg, sildenafil 300 μg/kg/h, riociguat 3 μg/kg/h systemically, comparative example 11 30 and 100 μg/kg inhaled
Source text: Efficacy of inhaled comparative example 11 was compared with systemically applied bosentan, sildenafil and riociguat (see FIG. 53a) in the PAH minipig model. […] Therefore inhaled application of comparative example 11 offers clear benefits as systemic effects are avoided, compared to standard of care.

[2] = test system: isolated Langendorff-perfused rat heart; assay: Isolated perfused heart according to Langendorff: perfusion pressure and wash-out score (C-1.2); settings: 100 nmol/l; for Perfusion pressure (%) (timepoint at 20 min) Mean: isolated Langendorff-perfused rat heart; for Perfusion pressure (%) (timepoint at 90 min) Mean: wash-out phase
Protocol: Male Wistar rats (strain HsdCpb:WU) with a body weight of 200-250 g were anaesthetized with Narcoren® (100 mg/kg). The thorax was opened and the heart was then exposed, excised and connected to a Langendorff apparatus by placing a cannula into the aorta. The heart was perfused retrogradely at 9 ml/min at constant flow with a Krebs-Henseleit buffer solution (gassed with 95% O2 and 5% CO2, pH 7.4, 35° C.; composition in mmol/l: NaCl 118; KCl 3; NaHCO3 22; KH2PO4 1.2; MgSO4 1.2; CaCl2 1.8; Glucose 10; Na pyruvate 2). A pressure transducer registered the perfusion pressure in the perfusion system. The left ventricular pressure (LVP) was measured using a second pressure transducer connected to a water-filled balloon which was inserted into the left ventricle via the left atrium. The end diastolic pressure was initially set to 8 mm Hg by adjusting the volume of the balloon. The hearts were spontaneously beating. The signals from the pressure transducer were amplified, registered by a personal computer (Powerlab Chart software, ADInstruments).
Then the hearts were perfused for a further 120 min without the test substance (wash-out phase). The reversibility of the effect (wash-out score) was calculated as a percentage of the PP recovery after 60 min of washout related to the maximum drop of PP induced by the test compound. The wash-out score obtained in this manner was taken as a measure for the residence time of the test substance at the site of action.

[3] = test system: thromboxane analog U46619 induced PAH in minipigs; assay: Haemodynamics (PAP, BP) in the anesthetized thromboxane challenged PAH minipig after inhaled (nebulized) application (C-2.1); type: in vivo, Göttingen minipig
Protocol: Experiments were carried out in anesthetized Göttingen minipigs, anesthetized rats and conscious, telemetrically instrumented dogs. Acute pulmonary hypertension was induced for example by infusion of a thromboxane A2 analogon, by acute hypoxia treatment or hypoxia treatment over a number of weeks and/or by administration of monocrotaline. Test substances were applied via nebulization using the Nebutec® or Aeroneb® Pro nebulizer system, and/or by means of powder and/or solution applicators for experimental intratracheal administration (Liquid MicroSprayer®, Dry Powder Insufflator™, MicroSprayer®, Penn-Century Inc., Wyndmoor, PA, USA) or after solid nebulization inserted into the inspiration arm of the ventilation. Compounds were employed as solids or solutions depending on the molecular structure and the technical possibility depending on the experiment. The haemodynamic signals were recorded and evaluated by means of pressure transducers/amplifiers (Combitransducer B. Braun, Melsungen, Germany or CardioMEMS Inc., Atlanta, GA, USA) and Ponemah® or CardioMems® as data aquisition software. After long-term experiments (for example monocrotaline rat), it is also possible to carry out a histological evaluation.
Healthy Gottingen Minipigs® Ellegaard (Ellegaard, Denmark) of both sexes and having a weight of 2-6 kg were used. The animals were sedated by i.m. administration of about 25 mg/kg ketamine and about 10 mg/kg azaperone. Anaesthesia was initiated by i.v. administration of about 2 mg/kg ketamine and about 0.3 mg/kg midazolam. Maintenance of anaesthesia was by i.v. administration of about 7.5-30 mg/kg/h ketamine and about 1-4 mg/kg/h midazolam (rate of infusion 1-4 ml/kg/h) and about 150 μg/kg/h pancuronium bromide (for example Pancuronium-Actavis). After intubation, the animals were ventilated by the ventilator at a constant respiratory volume (10-12 ml/kg, 35 breaths/min; Avea®, Viasys Healthcare, USA, or Engstrom Carestation, GE Healthcare, Freiburg, Germany) such that an end-tidal CO2 concentration of about 5% was achieved. Ventilation was performed with room air, enriched with about 40% oxygen (normoxia). For the measurement of the haemodynamic parameters such as pulmonary arterial pressure (PAP), blood pressure (BP) and heart rate (HR), catheters were inserted into the carotid artery to measure the blood pressure, and a Swan-Ganz® catheter was introduced in a flow-directed manner via the jugular vein into the pulmonary artery. The haemodynamic signals were recorded and evaluated by means of pressure transducers (Combitransducer, B. Braun, Melsungen, Germany)/amplifiers and Ponemah® as data aquisition software.
After the instruments have been placed into the animals, continuous infusion of a thromboxane A2 analog was initiated to increase the pulmonary arterial pressure. […] D0400, or Cayman Chemical Company, cat. no. 16440), dissolved in physiological saline, were infused to achieve an increase of the mean pulmonary arterial pressure to values of over 25 mmHg. 30 minutes after the start of the infusion, a plateau was reached, and the experiment was started.
The test substances were administered as i.v. infusion or by inhalation. For the preparation of the solution for inhalation, the following procedure was adopted: For an animal having a weight of 4 kg, to prepare the stock solution (300 μg/kg), 1.2 mg of the test compound were weighed out and dissolved in a total volume of 3 ml (1% DMSO, 99% 0.2% strength citric acid solution, 1 N aqueous sodium hydroxide solution to adjust the pH to 8). The solution was then diluted to the concentration employed using 0.2% strength citric acid which had been adjusted to pH 8 beforehand with aqueous sodium hydroxide solution. In each test, 3 ml of the solution of test compound per 4 kg animal were nebulized in the inhalation arm of the respiratory circuit using the Aeroneb® Pro nebulizer system. The mean nebulization time was about 7 min from the start of the nebulization.

[4] = test system: allergen-induced late airway hyperresponsiveness and inflammation in sensitized mice; assay: Chronic asthma model: ovalbumin sensitized BALB/c mice, airway hyperresponsiveness and BAL (C-3.3); type: in vivo, mouse; settings: for inhibition at 0.1 mg/kg: Mus musculus, dexamethasone 18 h and 1 h before each Ova challenge, comparative example 11 high dose of 100 μg/kg 2 h before
Protocol: The study was conducted to investigate whether inhalative treatment with comparative example 11 has a protective effect on the experimentally allergen-induced late airway hyperresponsiveness and inflammation in sensitized mice. Female BALB/c mice were sensitized and boosted with Ovalbumin (Ova) and aluminium hydroxide adjuvant (day 0. 14 and 21) with the exception of the negative control group receiving NaCl. On day 28 and 29. the animals were challenged with Ova aerosol. On day 30, a hyperresponsiveness test followed by bronchoalveolar lavage (BAL) was performed in all animals of all groups. The treatment groups D (10 μg) and E (100 μg) were treated with comparative example 11 inhalationally 2 h before each Ova challenge. Group A and B, the positive and negative control groups, were treated correspondingly with the vehicle. The Ova-sensitized positive control group A should show the full allergic reaction and, in contrast, the sham-sensitized negative control group B should show no allergic response. As a reference group, the animals of group C were treated inhalative with the corticosteroid dexamethasone but—due to its different mechanism of action—18 h and 1 h before each Ova challenge (on day 27, 28 and 29). On day 30, 24 h after Ova challenge in the late allergic phase, lung function—especially RL—was measured in the orotracheally intubated mice and a test on airway hyperresponsiveness was performed (inhalational methacholine provocation in doubling dose steps). […] These inhibitory effects show the successful therapeutic intervention.

[5] = Sildenafil 300 μg/kg/h systemically applied
[6] = Bosentan 1 mg/kg systemically applied
[7] = inhaled 100 μg/kg, 0 min vs. start inhalation
[8] = inhaled 100 μg/kg, 10 min vs. start inhalation
[9] = inhaled 100 μg/kg, 20 min vs. start inhalation
[10] = inhaled 100 μg/kg, 30 min vs. start inhalation
[11] = inhaled 100 μg/kg, −5 min vs. start inhalation
[12] = inhaled 3μg/kg, 0 min vs. start inhalation
[13] = inhaled 3μg/kg, 10 min vs. start inhalation
[14] = inhaled 3μg/kg, 20 min vs. start inhalation
[15] = inhaled 3μg/kg, 30 min vs. start inhalation
[16] = inhaled 3μg/kg, 40 min vs. start inhalation
[17] = inhaled 3μg/kg, 50 min vs. start inhalation
[18] = inhaled 3μg/kg, 60 min vs. start inhalation
[19] = inhaled 3μg/kg, 70 min vs. start inhalation
[20] = inhaled 3μg/kg, 80 min vs. start inhalation
[21] = inhaled 3μg/kg, 90 min vs. start inhalation
[22] = inhaled 3μg/kg, −5 min vs. start inhalation

CCCc1nn(C)c2c(=O)[nH]c(-c3cc(S(=O)(=O)N4CCN(C)CC4)ccc3OCC)nc12 [sildenafil, reference compound]
BP decrease % [1, 5]: −10.6% and −6.1% and −14.5%
PAP decrease % [1, 5]: −15.3% and −34.3% and −16.1%
effects on PAP and BP [1]: decreases in both PAP and BP

COc1ccccc1Oc1c(NS(=O)(=O)c2ccc(C(C)(C)C)cc2)nc(-c2ncccn2)nc1OCCO [Bosentan, reference compound]
BP decrease % [1, 6]: −6.7% and −15.0% and −10.3% and −12.7%
PAP decrease % [1, 6]: −3.7% and 3.9% and −7.7% and −16.0%
effects on PAP and BP [1]: decrease in BP with only minor effects on PAP

COC(=O)N(C)c1c(N)nc(-c2nn(Cc3ccccc3F)c3ncccc23)nc1N [Riociguat (comparative example 2)]
Wash-out score (%) after 60 min [2]: 98.0%
Perfusion pressure (%) (timepoint at 20 min) Mean [2]: 55.4%
Perfusion pressure (%) (timepoint at 90 min) Mean [2]: 99.9%
% changes in BP vs baseline [3, 7]: 100% and 102%
% changes in PAP vs baseline [3, 7]: 99%
% changes in BP vs baseline [3, 8]: 91% and 86%
% changes in PAP vs baseline [3, 8]: 95% and 92%
% changes in BP vs baseline [3, 9]: 91% and 85%
% changes in PAP vs baseline [3, 9]: 94% and 90%
% changes in BP vs baseline [3, 10]: 94%
% changes in PAP vs baseline [3, 10]: 94% and 90%
% changes in BP vs baseline [3, 11]: 100%
% changes in PAP vs baseline [3, 11]: 99% and 101%

C[C@@H]1C[C@H]2[C@@H]3CCC4=CC(=O)C=C[C@]4(C)[C@@]3(F)[C@@H](O)C[C@]2(C)[C@@]1(O)C(=O)CO [dexamethasone, reference compound]
inhibition at 0.1 mg/kg ([4]; read-out: inhibition of the airway hyperresponsiveness (ED100)): 89%
inhibition at 0.1 mg/kg ([4]; read-out: inhibition of the airway hyperresponsiveness (ED150)): 70%
inhibition of the eosinophilic influx ([4]; dexamethasone inhalative): 100%

O=C(O)CCCCN(CCc1ccccc1OCc1ccc(CCc2ccccc2)cc1)Cc1ccc(C(=O)O)cc1 [Cinaciguat (comparative example 1)]
Wash-out score (%) after 60 min [2]: 29.5%
Perfusion pressure (%) (timepoint at 20 min) Mean [2]: 62.1%
Perfusion pressure (%) (timepoint at 90 min) Mean [2]: 69.3%
% changes in BP vs baseline [3, 12]: 100% and 99%
% changes in PAP vs baseline [3, 12]: 99%
% changes in BP vs baseline [3, 13]: 91% and 89%
% changes in PAP vs baseline [3, 13]: 101% and 100%
% changes in BP vs baseline [3, 14]: 76% and 82%
% changes in PAP vs baseline [3, 14]: 99% and 98%
% changes in BP vs baseline [3, 15]: 74% and 86%
% changes in PAP vs baseline [3, 15]: 98%
% changes in BP vs baseline [3, 16]: 73% and 89%
% changes in PAP vs baseline [3, 16]: 97% and 98%
% changes in BP vs baseline [3, 17]: 82% and 94%
% changes in PAP vs baseline [3, 17]: 97% and 98%
% changes in BP vs baseline [3, 18]: 88% and 94%
% changes in PAP vs baseline [3, 18]: 97% and 99%
% changes in BP vs baseline [3, 19]: 100% and 99%
% changes in PAP vs baseline [3, 19]: 97% and 100%
% changes in BP vs baseline [3, 20]: 103% and 100%
% changes in PAP vs baseline [3, 20]: 95% and 98%
% changes in BP vs baseline [3, 21]: 105% and 102%
% changes in PAP vs baseline [3, 21]: 95% and 99%
% changes in BP vs baseline [3, 22]: 100%
% changes in PAP vs baseline [3, 22]: 100%
% changes in PAP vs baseline ([3]; inhaled 10 μg/kg, 0 min vs. start inhalation): 100% and 101%
% changes in PAP vs baseline ([3]; inhaled 10 μg/kg, 10 min vs. start inhalation): 100%
% changes in PAP vs baseline ([3]; inhaled 10 μg/kg, 20 min vs. start inhalation): 96% and 100%
% changes in PAP vs baseline ([3]; inhaled 10 μg/kg, 30 min vs. start inhalation): 94% and 100%
% changes in PAP vs baseline ([3]; inhaled 10 μg/kg, 40 min vs. start inhalation): 95% and 98%
% changes in PAP vs baseline ([3]; inhaled 10 μg/kg, 50 min vs. start inhalation): 94% and 96%
% changes in PAP vs baseline ([3]; inhaled 10 μg/kg, 60 min vs. start inhalation): 95% and 94%
% changes in PAP vs baseline ([3]; inhaled 10 μg/kg, 70 min vs. start inhalation): 93% and 94%
% changes in PAP vs baseline ([3]; inhaled 10 μg/kg, 80 min vs. start inhalation): 94% and 92%
% changes in PAP vs baseline ([3]; inhaled 10 μg/kg, 90 min vs. start inhalation): 93% and 89%
% changes in PAP vs baseline ([3]; inhaled 10 μg/kg, −5 min vs. start inhalation): 100%
